# Assay results: US11795173B1, “Substituted pyridines as PARP1 inhibitors” (Xinthera, Inc., priority 2022, dated 2023)
# pEC50: −log10 of the molar value.
# Experiments:
# [1] = system: DLD-1 BRCA2(−/−) cells; experiment: Cell growth inhibition assay (CellTiter-Glo), DLD-1 BRCA2(−/−); format: cell-based; settings: Homo sapiens, DLD-1, 168 h; cell viability, CellTiter Glo 2.0, 7 days
# Description: The objective of this study is to evaluate the effect of compound disclosed herein on cell proliferation through the cell viability assay in DLD-1 BRCA2(−/−) and parental isogenic pair and MDA-MB-436 (mutated BRCA1) cell lines.
# DLD-1 BRCA2(−/−) and parental isogenic pair were cultured in RPMI 1640 supplemented with 10% fetal bovine serum (FBS), and MDA-MB-436 cells were cultured in DMEM supplemented with 10% FBS. Both are culture at 37° C. with 5% CO2. […] The cells were seeded into the plate in the density of 50 cells/well (DLD-1 parental), 200 cells/well (DLD-1 BRCA2−/−), or 500 cells/well (MDA-MB-436). After a short spun, the cells were cultured in a well moisturized incubator at 37° C. with 5% CO2 for 7 days without disturbance. The cell viability was measured by CellTiter Glo 2.0 assay kit (Promega, G9243), and growth inhibition rate was calculated and plotted against final compound concentration, and the data were fitted in Xfit to generate IC50.
# [2] = system: MDA-MB-436 (mutated BRCA1) cells; experiment: Cell growth inhibition assay (CellTiter-Glo), MDA-MB-436; format: cell-based; settings: Homo sapiens, MDA-MB-436, 168 h; cell viability, CellTiter Glo 2.0, 7 days
# Source text: The objective of this study is to evaluate the effect of compound disclosed herein on cell proliferation through the cell viability assay in DLD-1 BRCA2(−/−) and parental isogenic pair and MDA-MB-436 (mutated BRCA1) cell lines. The CellTiter-Glo (CTG) based cell viability assay is designed to determine the number of viable cells in the culture because of compound effect, by quantifying ATP, which indicates the presence of metabolically active cells.
# DLD-1 BRCA2(−/−) and parental isogenic pair were cultured in RPMI 1640 supplemented with 10% fetal bovine serum (FBS), and MDA-MB-436 cells were cultured in DMEM supplemented with 10% FBS. Both are culture at 37° C. with 5% CO2. Invention compounds were distributed to the 384 well plate (Corning, 3764) using Echo acoustic liquid handler to form a 1:3 serially diluted final concentration with top dose of 10 or 30 μM. The cells were seeded into the plate in the density of 50 cells/well (DLD-1 parental), 200 cells/well (DLD-1 BRCA2−/−), or 500 cells/well (MDA-MB-436). After a short spun, the cells were cultured in a well moisturized incubator at 37° C. with 5% CO2 for 7 days without disturbance. The cell viability was measured by CellTiter Glo 2.0 assay kit (Promega, G9243), and growth inhibition rate was calculated and plotted against final compound concentration, and the data were fitted in Xfit to generate IC50.
SMILES,pEC50 [1],pEC50 [2]
"[2H]C1([2H])Cc2c(c3ccc(CN4CCN(c5ccc(C(=O)NC)nc5F)CC4)c(F)c3[nH]c2=O)O1 (single isomer, unassigned) [Example 31, 6-fluoro-5-(4-((6-fluoro-4-oxo-2,3,4,5-tetrahydrofuro[3,2-c]quinolin-7-yl-2,2-d2)methyl)piperazin-1-yl)-N-methylpicolinamide]",8.11,8.16
O=C(NCC(F)F)c1ccc(N2CCN(Cc3ccc4c([nH]c(=O)c5ccoc54)c3F)CC2)c(F)n1 [Example 11],8.96,9.07
CNC(=O)c1ccc(N2CCN(Cc3ccc4c5c(c(=O)[nH]c4c3F)CCO5)CC2)cn1 [Example 26],8.12,8.22
CNC(=O)c1ccc(N2CCN(Cc3ccc4c5c(c(=O)[nH]c4c3F)CCO5)CC2)c(C)n1 [Example 29],8.37,8.68
"[2H]C1([2H])COc2c1c(=O)[nH]c1c(F)c(CN3CCN(c4ccc(C(=O)NC)nc4F)CC3)ccc21 (single isomer, unassigned) [Example 32, 6-fluoro-5-(4-((6-fluoro-4-oxo-2,3,4,5-tetrahydrofuro[3,2-c]quinolin-7-yl-3,3-d2)methyl)piperazin-1-yl)-N-methylpicolinamide]",8.27,8.04
O=C(NC1CC1)c1ccc(N2CCN(Cc3ccc4c([nH]c(=O)c5ccoc54)c3F)CC2)c(F)n1 [Example 14],8.92,9.17
O=C(NC1CC1)c1ccc(N2CCN(Cc3ccc4c5c(c(=O)[nH]c4c3F)CCO5)CC2)c(F)n1 [Example 16],8.29,8.51
O=C(NCC(F)F)c1ccc(N2CCN(Cc3ccc4c5c(c(=O)[nH]c4c3F)CCO5)CC2)c(F)n1 [Example 15],8.72,9.12
Cc1cc2c(=O)[nH]c3c(F)c(CN4CCN(c5ccc(C(=O)NCC(F)F)nc5F)CC4)ccc3n2n1 [Example 13],8.85,8.92
CNC(=O)c1ccc(N2CCN(Cc3ccc4c([nH]c(=O)c5ccnn54)c3F)CC2)cn1 [Example 2],–,7.17

# Other lines, results leading:
pEC50 [1],pEC50 [2],SMILES
8.82,8.89,COCCNC(=O)c1ccc(N2CCN(Cc3ccc4c([nH]c(=O)c5cc(C)nn54)c3F)CC2)c(F)n1 [Example 17]
9.08,9.24,"CNC(=O)c1ccc(N2CCN(Cc3ccc4c([nH]c(=O)c5c(F)cnn54)c3F)CC2)c(F)n1 [Example 28, 5-[4-({3,6-difluoro-4-oxo-5H-pyrazolo[1,5-a]quinoxalin-7-yl}methyl)piperazin-1-yl]-6-fluoro-N-methylpyridine-2-carboxamide]"
8.74,8.85,"CNC(=O)c1ccc(N2CCN(Cc3ccc4c([nH]c(=O)c5cc(F)nn54)c3F)CC2)c(F)n1 [Example 25, 5-[4-({2,6-difluoro-4-oxo-5H-pyrazolo[1,5-a]quinoxalin-7-yl}methyl)piperazin-1-yl]-6-fluoro-N-methylpyridine-2-carboxamide]"
8.33,8.57,CNC(=O)c1ccc(N2CCN(Cc3ccc4c([nH]c(=O)c5c(C)cnn54)c3F)CC2)c(F)n1 [Example 23]
8.21,8.40,"CNC(=O)c1ccc(N2CCN(Cc3ccc4c([nH]c(=O)c5cn(C)nc54)c3F)CC2)c(F)n1 [Example 20, 6-fluoro-5-[4-({6-fluoro-2-methyl-4-oxo-5H-pyrazolo[4,3-c]quinolin-7-yl}methyl)piperazin-1-yl]-N-methylpyridine-2-carboxamide]"
7.24,7.51,"CNC(=O)c1ccc(N2CCN(Cc3ccc4c([nH]c(=O)c5cnn(C)c54)c3F)CC2)c(F)n1 [Example 19, 6-fluoro-5-[4-({6-fluoro-1-methyl-4-oxo-5H-pyrazolo[4,3-c]quinolin-7-yl}methyl)piperazin-1-yl]-N-methylpyridine-2-carboxamide]"
